#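 Compound exposure: 48 hours, 5 concentrations, 96-well plates. At the GI50, growth is halved.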 Calls of active or inactive are those of the source. Rule as the data show it: active = GI50 up to about 1.1 µM and inactive = higher.
# Experiments:
# Assay in all cases: growth of human tumour cells (NCI), 48 h
# KM12 = system: KM12
# RXF 393 = system: RXF 393
# Malme-3M = system: Malme-3M
# OVCAR-8 = system: OVCAR-8
# A498 = system: A498
# A549 = system: A549
# 786-0 = system: 786-0
# HOP-62 = system: HOP-62
# IGROV-1 = system: IGROV-1
# NCI-H23 = system: NCI-H23
# NCI-H226 = system: NCI-H226
# M14 = system: M14
# SK-MEL-5 = system: SK-MEL-5
# SK-OV-3 = system: SK-OV-3
# SR = system: SR
# HOP-92 = system: HOP-92
# HCT-116 = system: HCT-116
Structure (SMILES),GI50 (KM12),GI50 (RXF 393),GI50 (Malme-3M),GI50 (OVCAR-8),GI50 (A498),GI50 (A549),GI50 (786-0),GI50 (HOP-62),GI50 (IGROV-1),GI50 (NCI-H23),GI50 (NCI-H226),GI50 (M14),GI50 (SK-MEL-5),GI50 (SK-OV-3),GI50 (SR),GI50 (HOP-92),GI50 (HCT-116)
O=S1(=O)c2ccccc2NC(c2ccc3ccccc3c2)CC1c1ccccc1F (stereo not drawn),> 100 µM (inactive),> 100 µM (inactive),> 100 µM (inactive),> 100 µM (inactive),> 100 µM (inactive),> 100 µM (inactive),> 100 µM (inactive),> 100 µM (inactive),> 100 µM (inactive),> 100 µM (inactive),> 100 µM (inactive),> 100 µM (inactive),> 100 µM (inactive),> 100 µM (inactive),–,–,–
O=C1NC(O)n2c(=O)[nH]c(=O)n21 (stereo not drawn),> 100 µM (inactive),> 100 µM (inactive),–,> 100 µM (inactive),–,> 100 µM (inactive),> 100 µM (inactive),> 100 µM (inactive),> 100 µM (inactive),> 100 µM (inactive),> 100 µM (inactive),> 100 µM (inactive),> 100 µM (inactive),> 100 µM (inactive),> 100 µM (inactive),> 100 µM (inactive),> 100 µM (inactive)
CN1CC(=O)N2Cc3ccccc3-n3cccc3C2C1 (stereo not drawn),> 100 µM (inactive),> 100 µM (inactive),> 100 µM (inactive),> 100 µM (inactive),> 100 µM (inactive),> 100 µM (inactive),> 100 µM (inactive),> 100 µM (inactive),> 100 µM (inactive),> 100 µM (inactive),–,> 100 µM (inactive),> 100 µM (inactive),> 100 µM (inactive),–,–,> 100 µM (inactive)
N#CCN1CCCCCc2ccccc21,> 100 µM (inactive),> 100 µM (inactive),> 100 µM (inactive),> 100 µM (inactive),–,> 100 µM (inactive),> 100 µM (inactive),> 100 µM (inactive),> 100 µM (inactive),> 100 µM (inactive),> 100 µM (inactive),> 100 µM (inactive),> 100 µM (inactive),> 100 µM (inactive),> 100 µM (inactive),> 100 µM (inactive),> 100 µM (inactive)
CCCC(=O)CC(C)C(=O)C(=O)NC12CC3CC(CC(C3)C1)C2 (stereo not drawn),> 100 µM (inactive),> 100 µM (inactive),> 100 µM (inactive),> 100 µM (inactive),–,> 100 µM (inactive),> 100 µM (inactive),> 100 µM (inactive),–,> 100 µM (inactive),> 100 µM (inactive),> 100 µM (inactive),> 100 µM (inactive),–,–,22.3 µM (inactive),–
Clc1ccccc1CN1COc2c(cc(Cl)c3cccnc23)C1,3.03 µM (inactive),13.7 µM (inactive),2.47 µM (inactive),2.85 µM (inactive),–,3.35 µM (inactive),4.39 µM (inactive),3.05 µM (inactive),5.55 µM (inactive),3.38 µM (inactive),1.3 µM (inactive),3.77 µM (inactive),1.38 µM (inactive),8.75 µM (inactive),0.439 µM (active),3.18 µM (inactive),3.64 µM (inactive)
COc1ccc(NC(=O)CC(=O)N2N=C(N(CCC#N)c3cccc(C)c3)CC2c2ccccc2)cc1 (stereo not drawn),> 100 µM (inactive),> 100 µM (inactive),> 100 µM (inactive),> 100 µM (inactive),–,> 100 µM (inactive),> 100 µM (inactive),> 100 µM (inactive),> 100 µM (inactive),> 100 µM (inactive),> 100 µM (inactive),> 100 µM (inactive),> 100 µM (inactive),> 100 µM (inactive),> 100 µM (inactive),> 100 µM (inactive),> 100 µM (inactive)

# — ChEMBL document CHEMBL1201862, “PubChem BioAssay data set” (2004)
